Measurements: patent US7846937B2, “Cyclopropanecarboxylate esters of acyclovir” (Eli Lilly and Company, priority 2005, dated 2010)
Like-named read-outs stand apart in the source and are kept apart here.

Assay: Hydrolytic stability in buffered aqueous solutions (HPLC)
Assay type: physicochemical
Conditions: 40° C., read-out: t1/2 (hr) at 40° C. (converted)
Protocol: Hydrolytic stability of valacyclovir and 1-amino-cyclopropanecarboxylic acid 2-(2-amino-6-oxo-1,6-dihydro-purin-9-ylmethoxy)-ethyl ester trifluoroacetic acid salt
Test samples of valacyclovir and 1-amino-cyclopropanecarboxylic acid 2-(2-amino-6-oxo-1,6-dihydro-purin-9-ylmethoxy)-ethyl ester trifluoroacetic acid salt (Example 1) are dissolved in buffered solutions of known pH at a concentration of 100 mcg/mL. Compound samples are prepared in 0.1 N hydrochloric acid for pH 1 and phosphate based buffer for pH2, 4, 6, 8 and 10. Stability is conveniently assessed using a semi-automated HPLC technique. Compound samples are loaded onto an HPLC autosampler incubated at 40° C. Samples are repeatedly injected on the HPLC at specific time intervals. The peak area of the compound samples are monitored by UV detection.
The HPLC system consisted of an Agilent® 1100 autoinjector, pump, degasser and LV detector. A Waters® Atlantis dC-18 column (3 micron, 150×4.6 mm I.D.) is used to separate the degradation products from the compound sample. An isocratic reversed-phase system using ultraviolet detection is used to monitor the peak areas of the compound sample over a 24 hour period. The mobile phase composition is 5% acetonitrile and 95% water with 0.1% trifluoroacetic acid added to the mixture. The flow rate is 1.5 mL/min. The column temperature is 30 degrees Celsius and the injection volume was 10 μL. The UV detector is set at 256 nm and the run time was 9 minutes. Time points are analyzed every 2 hours for each buffer while being incubated at 40 degrees Celsius by the thermostat controlled autosampler.
The peak area of the compound sample is monitored over a 24 hour period at 2 hour intervals. The peak area of the compound sample is plotted versus time for each of the buffers tested. A first order calculation is used to determine the rate constant for each buffer based on the loss of peak area over time. The half-life, in hours, is calculated by dividing 0.693 by the rate constant (k). t1/2 (hr)=0.693/k.

[1] = pH = 1, 0.1 N hydrochloric acid
[2] = pH = 10, phosphate based buffer

Row | half-life at 100 mcg/mL [1] [h] | half-life at 100 mcg/mL (pH = 2, phosphate based buffer) [h] | half-life at 100 mcg/mL (pH = 4, phosphate based buffer) [h] | half-life at 100 mcg/mL (pH = 6, phosphate based buffer) [h] | half-life at 100 mcg/mL (pH = 8, phosphate based buffer) [h] | half-life at 100 mcg/mL [2] [h] | SMILES
1 | > 300 | > 300 | > 300 | > 300 | 90.1 | 23.8 | Nc1nc2c(ncn2COCCOC(=O)C2(N)CC2)c(=O)[nH]1.O=C(O)C(F)(F)F [Example 1, 1-amino-cyclopropanecarboxylic acid 2-(2-amino-6-oxo-1,6-dihydro-purin-9-ylmethoxy)-ethyl ester trifluoroacetic acid salt]
2 | > 300 | > 300 | > 300 | 69.7 | 7.8 | 6.8 | CC(C)[C@H](N)C(=O)OCCOCn1cnc2c(=O)[nH]c(N)nc21 [valacyclovir, 2(2-amino-1,6-didydro-6-oxo-9H(purin-9-yl)methoxy)ethyl L-valinate]
